In article PMC7764606 (Cancers, 2020):

Key:
[1] = test system: AKR1C3 expression in A549 cells; test: AKR1C3 protein levels in A549 cells by western blotting; type: cell-based, human; details: 1, 5 and 10 µM, 72 h, western blot relative to β-actin
Method: A549 cells were incubated with DMSO or BTK inhibitors (1, 5, and 10 µM) for 72 h, and then total protein was extracted for analysis of AKR1C3 expression by western blotting (WB) as per methods described previously. A representative WB is shown for IBR (A) and ACA (B) incubations, and bars represent AKR1C3 protein levels as determined by densitometry relative to β-actin (n = 3, mean ± SD). Uncropped images from WB are available in Figure S1 in the Supplementary Materials. On the other hand, HCT116-EV and HCT116-C3 cells were treated with increasing concentrations of IBR (C) and ACA (D) for 72 h, and their viability was assessed by MTT assay. Graphs represent a comparison of the dose-response curves for percentages of cell viability in each cell line (n = 6, mean ± SD).

[2] = test system: T1, recombinant AKR1B10; test: Reduction of Dau by recombinant AKR1B10 (UHPLC detection of Dau-ol); type: biochemical, Human; details: Dau 500 µM, relative to DMSO
T1 construct: made in house; host or cells: Escherichia coli
Method: Human recombinant CREs (CBR1, AKR1A1, 1B1, 1B10, 7A2, and 1C3) were produced by an Escherichia coli expression system as per methods described previously. For the inhibitory assay, each recombinant enzyme, CBR1 (1 µg), AKR1A1 (1 µg), AKR1B1 (5 µg), AKR1B10 (5 µg), AKR7A2 (3 µg), or AKR1C3 (1.5 µg) was incubated with BTK inhibitors at different concentrations (10 and 50 µM) and the substrate Dau (500 µM). For analysis using the Lineweaver-Burk plot, 1.5 µg of recombinant AKR1C3 was incubated with DMSO or BTK inhibitors (1, 5, and 10 µM) and Dau (200, 400, 600, 800, 1000, and 2000 µM). […] The incubations and further metabolite detection were further performed by using ultra-high-performance liquid chromatography (UHPLC) as per methods described previously.

[3] = test system: HCT116-C3 cells; test: MTT cell viability, HCT116-C3 cells (incl. Chou-Talalay analysis); type: cell-based, human
Method: HCT116 cells were seeded (1.25 × 10^5 cells/well) in 24-well plates and cultured for 24 h. For the transient expression of the recombinant human AKR1C3, the cells were transfected with a pCI_AKR1C3 or empty pCI plasmid as control (previously described in a study by Hofman et al.) according to the manufacturer’s instructions (jetPRIME® Transfection Reagent; Polyplus Transfection®, Illkirch, France). For each 24-well plate, a mixture of 0.75 µL of the jetPRIME® Transfection Reagent and 0.25 µg of plasmid was incubated for 10 min at room temperature. Then, polyplexes were added to the HCT116 cells with 0.5 mL of fresh DMEM supplemented with 10% FBS and incubated for 24 h (37 °C, 5% CO2). The expression of recombinant AKR1C3 was verified by western blotting as per methods described previously.
The synergistic effect of BTK inhibitors on Dau cytotoxicity was evaluated in transfected HCT116 and A549 cells by IC50 determination. Twenty-four hours prior to the experiment, transfected HCT116 cells (8 × 10^3 cells/well) or A549 cells (5 × 10^3 cells/well) were seeded in 96-well plates. The cell culture medium was replaced with fresh medium containing increasing amounts of Dau (final concentrations: 0.01, 0.05, 0.1, 0.25, 0.5, 0.75, 1, and 10 µM) with or without BTK inhibitors (final concentrations: 1, 5, and 10 µM). After 72 h of incubation under standard conditions (37 °C, 5% CO2), cell viability was assessed by MTT (Sigma-Aldrich, Prague, Czech Republic) assay. For this, 50 µL of the MTT solution (3 mg/mL) was added to each well and incubated for 30 min. The supernatant was collected, and the cell monolayers were dissolved in 100 µL of DMSO. The absorbance was measured at 570 and 690 nm by a microplate reader Infinite M200 (Tecan, Salzburg, Austria), and the background values at 690 nm were subtracted from the absorbance obtained at 570 nm. The half-maximal inhibitory concentrations (IC50) were calculated using GraphPad Prism 8.1.2. The drug combination pharmacodynamics were determined by the Chou-Talalay method using the CompuSyn ver. 3.0.1 software (ComboSyn Inc., Paramus, NJ, USA).

[4] = HCT116-C3, BTK-inhibitor 5 µM + Dau 0.25 µM
[5] = HCT116-C3, BTK-inhibitor 10 µM + Dau 0.25 µM

IC50 ([3]; Homo sapiens, HCT116-C3, 72 h MTT, read-out: IC50 of BTK inhibitor alone (cell viability)): 32.2 µM
SMILES: CC#CC(=O)N1CCC[C@H]1c1nc(-c2ccc(C(=O)Nc3ccccn3)cc2)c2c(N)nccn12 [Acalabrutinib, acalabrutinib]
effect on expression (protein levels) of AKR1C3 [1]: negligible or absence of effects | inhibition of AKR1B10 activity (Dau reduction) ([2]; 10 µM BTK inhibitor): did not show significant inhibition | inhibition of AKR1B10 activity (Dau reduction) ([2]; 50 µM BTK inhibitor): 9.36% ± 2.53% | Dose reduction index for Dau [3, 4]: 1.38 ± 0.37 | Fraction affected (Fa %) [3, 4]: 34.59 ± 5.75% | Fraction affected (Fa %) ([3]; HCT116-C3, BTK-inhibitor 5 µM + Dau 0.50 µM): 68.43 ± 1.41% | Fraction affected (Fa %) ([3]; HCT116-C3, BTK-inhibitor 5 µM + Dau 0.75 µM): 79.88 ± 0.40% | Fraction affected (Fa %) ([3]; HCT116-C3, BTK-inhibitor 5 µM + Dau 1.00 µM): 86.61 ± 1.29% | Dose reduction index for Dau [3, 5]: 1.77 ± 0.75 | Fraction affected (Fa %) [3, 5]: 40.91 ± 11.4% | Fraction affected (Fa %) ([3]; HCT116-C3, BTK-inhibitor 10 µM + Dau 0.50 µM): 77.47 ± 0.69% | Fraction affected (Fa %) ([3]; HCT116-C3, BTK-inhibitor 10 µM + Dau 0.75 µM): 87.59 ± 1.02% | Fraction affected (Fa %) ([3]; HCT116-C3, BTK-inhibitor 10 µM + Dau 1.00 µM): 91.62 ± 0.29% | relative resistance (RR) ([3]; IC50 in HCT116-C3 divided by IC50 in HCT116-EV): 0.97
